Values of other authors as cited in US20040092519A1, “New treatment for hot flashes” (priority 2002, published 2004).

Columns and labels:
[1] = low doses; men and women
[2] = transdermal; some patients

SMILES	frequency of hot flashes [1]	side effects [2]
CC(=O)O[C@]1(C(C)=O)CC[C@H]2[C@@H]3C=C(C)C4=CC(=O)CC[C@]4(C)[C@H]3CC[C@@]21C [megestrol acetate]	reduce the frequency of hot flashes	
Clc1cccc(Cl)c1N=C1NCCN1 [clonidine]		drowsiness, fatigue, and symptoms of low blood pressure
